Where “and” joins values, the source holds several entries; their conditions need not be identical. Equal entries are not always repeated.
How the values were obtained:
Rh3 GUS mutants = test: Catalytic efficiency assay, wild-type and mutant Rh3 GUS; format: biochemical, R. hominis; conditions: Fig. 3j, replicates 1-3
[1] = tested on: Fp2-L1 GUS mutant proteins; test: Catalytic efficiency assay, wild-type and mutant Fp2-L1 GUS; format: biochemical, F. prausnitzii; conditions: Fig. 3h, replicates 1-3
Caco2 cells = test: Cell proliferation assay (MTT); format: cell-based, human
Protocol: (§1) Mouse (MC38) or human (Caco2 and HCT-116) intestinal cells were grown in DMEM medium fortified with 10% FBS (EMD Millipore Corporation). The cells were seeded in 96-well plates, then treated with GUSi or vehicle (0.2% v/v DMSO) for 24 h. Cell viability was determined using an MTT assay.
(§2) Fig. S14. GUSi treatment has little effect on the proliferation of mouse or human intestinal cells in vitro.
(§3) Mouse (MC38) or human (Caco2 and HCT-116) intestinal cells were treated with GUSi or vehicle (0.2% v/v
(§4) DMSO) for 24 h, then cell viability was analyzed using a MTT assay. The data are mean ± SEM, n = 5-6 per

HCT-116 cells = test: Cell proliferation assay (MTT); format: cell-based, human
Protocol: as §1, §2, §3, §4

[2] = tested on: F. prausnitzii 2-L1 (Fp2-L1) GUS; test: In vitro IC50 assay (TCS-G to TCS conversion, HPLC); format: biochemical; conditions: for F. prausnitzii 2-L1 GUS %inhibition: Fig. 4b, triplicate
mammalian GUS enzyme = tested on: mammalian GUS enzyme; set-up: method as in PMID 30062115; conditions: cited from earlier work
[3] = tested on: epithelial cells in the ileum, proximal or distal colon; set-up: method as in PMID 32170007; conditions: proximal or distal colon of the treated mice; cited from earlier work
R. hominis 3 GUS = target: T1, R. hominis 3 GUS (Roseburia hominis, UniProt A0A395V874); test: In vitro IC50 assay (TCS-G to TCS conversion, HPLC); format: biochemical
T1 sequence (A0A395V874 1-734): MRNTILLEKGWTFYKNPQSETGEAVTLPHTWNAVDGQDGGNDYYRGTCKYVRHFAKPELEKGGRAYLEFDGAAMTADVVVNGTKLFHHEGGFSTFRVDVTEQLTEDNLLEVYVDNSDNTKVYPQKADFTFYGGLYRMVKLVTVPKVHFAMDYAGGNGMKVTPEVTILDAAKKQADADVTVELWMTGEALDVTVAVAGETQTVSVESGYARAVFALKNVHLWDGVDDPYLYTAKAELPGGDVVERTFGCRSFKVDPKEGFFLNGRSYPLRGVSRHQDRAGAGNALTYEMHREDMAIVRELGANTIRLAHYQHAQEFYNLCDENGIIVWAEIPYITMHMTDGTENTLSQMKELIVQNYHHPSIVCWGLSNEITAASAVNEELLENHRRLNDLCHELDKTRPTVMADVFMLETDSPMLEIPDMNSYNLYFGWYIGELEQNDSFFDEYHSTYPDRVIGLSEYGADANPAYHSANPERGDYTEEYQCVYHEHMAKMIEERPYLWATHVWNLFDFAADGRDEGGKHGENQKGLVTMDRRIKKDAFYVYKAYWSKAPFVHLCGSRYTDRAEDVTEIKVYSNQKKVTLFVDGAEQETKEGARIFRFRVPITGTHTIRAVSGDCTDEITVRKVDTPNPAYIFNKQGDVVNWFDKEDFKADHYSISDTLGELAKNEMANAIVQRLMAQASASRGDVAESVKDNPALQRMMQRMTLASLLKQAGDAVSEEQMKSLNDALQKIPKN
Protocol: Reaction mixtures containing 10 µL GUS (10 nM final), 10 µL TCS-G (200 µM final), 5 µL inhibitor (various concentrations), and 25 µL buffer (50 mM HEPES, 50 mM NaCl, various pH) or (50 mM sodium acetate, 50 mM NaCl, various pH) were incubated for 10 min and quenched with 50 µL 25% trichloroacetic acid. Samples were centrifuged 10 min at 16,000 × g, and the supernatant was analyzed using the method described for the catalytic efficiency assay. Inhibition was calculated by the equation below:1 %inhibition=100×(1−(AUCinh−AUCmax)/(AUCmin−AUCmax)) where AUCmin is the signal of the uninhibited reaction, AUCmax is the signal of the 100% inhibited reaction, and AUCinh is the signal of the reaction at a given concentration of inhibitor. Percent inhibition values were plotted against the log of inhibitor concentration, and GraphPad Prism 8.0 was used to determine IC50 values.

MC38 cells = test: Cell proliferation assay (MTT); format: cell-based, mouse
Protocol: as §1, §2, §3, §4

fecal microbiota = test: 16S rRNA sequencing of fecal microbiota of GUSi-treated mice; conditions: 1 mg/kg GUSi via oral gavage
[4] = 24-h treatment, concentration up to 10 µM
[5] = GUSi 33.3333 uM, Fig. 4c, triplicate

SMILES: O=C(O)C1OC(Oc2cc(Cl)ccc2Oc2ccc(Cl)cc2Cl)C(O)C(O)C1O (centres unmarked) [TCS-G, triclosan-glucuronide]
- Catalytic efficiency (Rh3 GUS mutants; Enzyme: Rh3 F406A): 147440 M⁻¹ s⁻¹ and 148640 M⁻¹ s⁻¹ and 151680 M⁻¹ s⁻¹
- Catalytic efficiency (Rh3 GUS mutants; Enzyme: Rh3 L635STOP): 0 M⁻¹ s⁻¹
- Catalytic efficiency (Rh3 GUS mutants; Enzyme: Rh3 Y430A): 0 M⁻¹ s⁻¹
- Catalytic efficiency ([1]; Enzyme: Fp 2-L1 M362A): 344000 M⁻¹ s⁻¹ and 207500 M⁻¹ s⁻¹ and 364600 M⁻¹ s⁻¹
- Catalytic efficiency ([1]; Enzyme: Fp 2-L1 M454A): 1202500 M⁻¹ s⁻¹ and 1255200 M⁻¹ s⁻¹ and 1243800 M⁻¹ s⁻¹
- Catalytic efficiency ([1]; Enzyme: Fp 2-L1 M455A): 1203800 M⁻¹ s⁻¹ and 1137600 M⁻¹ s⁻¹ and 1168500 M⁻¹ s⁻¹
- Catalytic efficiency ([1]; Enzyme: Fp 2-L1 Y479A): 0 M⁻¹ s⁻¹

SMILES: C1CCc2c(c(N3CCOCC3)nc3sc4c(N5CCNCC5)nnnc4c23)C1 [GUSi, UNC10201652]
- effect on cell growth (MTT) (Caco2 cells; [4]): little effect
- Cell proliferation (Fig. S14) (Caco2 cells; Caco2, concentration 1, replicates): 98.3792 and 85.2575 and 104.44 and 99.0453 and 92.8508 and 100.244
- Cell proliferation (Fig. S14) (Caco2 cells; Caco2, concentration 2, replicates): 86.1234 and 96.6474 and 97.7798 and 94.9156 and 100.844
- Cell proliferation (Fig. S14) (Caco2 cells; Caco2, concentration 5, replicates): 95.1821 and 92.3845 and 92.5844 and 91.9849 and 82.46 and 86.0568
- Cell proliferation (Fig. S14) (Caco2 cells; Caco2, concentration 10, replicates): 85.1243 and 87.6554 and 72.6021 and 79.7957 and 82.3268 and 62.0782
- effect on cell growth (MTT) (HCT-116 cells; [4]): little effect
- Cell proliferation (Fig. S14) (HCT-116 cells; HCT 116, concentration 1, replicates): 91.3142 and 95.487 and 92.4485 and 104.886 and 100.024
- Cell proliferation (Fig. S14) (HCT-116 cells; HCT 116, concentration 2, replicates): 98.4038 and 88.5189 and 93.2993 and 86.1692 and 98.1202 and 99.3761
- Cell proliferation (Fig. S14) (HCT-116 cells; HCT 116, concentration 5, replicates): 113.11 and 102.536 and 95.2844 and 92.408 and 101.807 and 114.082
- Cell proliferation (Fig. S14) (HCT-116 cells; HCT 116, concentration 10, replicates): 87.263 and 108.329 and 83.941 and 79.8088 and 79.1606 and 114.487
- F. prausnitzii 2-L1 GUS %inhibition ([2]; GUSi 0.0457247 uM): 0% and 0.2667%
- F. prausnitzii 2-L1 GUS %inhibition ([2]; GUSi 0.137174 uM): 0% and 0.1263%
- F. prausnitzii 2-L1 GUS %inhibition ([2]; GUSi 0.411523 uM): 0%
- F. prausnitzii 2-L1 GUS %inhibition ([2]; GUSi 3.7037 uM): 74.6624% and 62.5632% and 66.5428%
- F. prausnitzii 2-L1 GUS %inhibition ([2]; GUSi 11.1111 uM): 93.6484% and 88.7563% and 88.6045%
- F. prausnitzii 2-L1 GUS %inhibition ([2]; GUSi 33.3333 uM): 99.4351% and 98.0067% and 94.7151%
- F. prausnitzii 2-L1 GUS %inhibition ([2]; GUSi 100 uM): 100.964% and 99.7754% and 96.4492%
- IC50 ([2]; conversion of TCS-G (200 µM) to TCS, Loop 1 GUS): 2800 ± 100 nM
- effect on the activity of mammalian GUS enzyme (mammalian GUS enzyme): no effect
- effect on the proliferation of epithelial cells [3]: no effect
- IC50 (R. hominis 3 GUS): > 100000 nM
- R. hominis 3 GUS % inhibition (R. hominis 3 GUS; GUSi 3.7037 uM, Fig. 4c, triplicate): 2.389% and -2.0752% and 4.091%
- R. hominis 3 GUS % inhibition (R. hominis 3 GUS; [5]): 18.9209% and 35.4136%
- inhibition at 33.3333 µM (R. hominis 3 GUS; [5]): 23.2%
- R. hominis 3 GUS % inhibition (R. hominis 3 GUS; GUSi 100 uM, Fig. 4c, triplicate): 34.5947% and 39.5508% and 57.3604%
- effect on cell growth (MTT) (MC38 cells; [4]): little effect
- Cell proliferation (Fig. S14) (MC38 cells; MC38, concentration 1, replicates): 97.1748 and 94.9589 and 98.929 and 107.192 and 94.0356 and 103.315
- Cell proliferation (Fig. S14) (MC38 cells; MC38, concentration 2, replicates): 103.453 and 99.2983 and 100.314 and 103.361 and 103.084 and 108.023
- Cell proliferation (Fig. S14) (MC38 cells; MC38, concentration 5, replicates): 85.9108 and 74.139 and 84.9875 and 91.9121 and 86.7418 and 84.0181
- Cell proliferation (Fig. S14) (MC38 cells; MC38, concentration 10, replicates): 68.784 and 87.3419 and 84.2489 and 91.7736 and 82.9102
- effect on the diversity or composition of fecal microbiota (fecal microbiota): little effect

From publication PMC8748916, “Microbial enzymes induce colitis by reactivating triclosan in the mouse gastrointestinal tract” (Nature Communications, 2022)
